From US11331284B2 (UNM Rainforest Innovations, priority 2017, dated 2022)

Columns and labels:
[1] = tested on: TFEB nuclear translocation; experiment: ambroxol induction of TFEB nuclear translocation; format: cell-based
[2] = in humans; reference 1; cited from earlier work
[3] = tested on: bone marrow derived macrophages from ATG5 knockouts (autophagy, LC3 puncta); experiment: ambroxol dose response assay, LC3 puncta quantified by Cellomics, ATG5 knockout cells; format: cell-based
Description: The inventors next studied the same assay, described above, but in ATG5 knockout cells.

[4] = tested on: bone marrow derived macrophages from wild type (autophagy, LC3 puncta); experiment: ambroxol dose response assay, LC3 puncta quantified by Cellomics, wild type cells; format: cell-based

Compound: Nc1c(Br)cc(Br)cc1CN[C@H]1CC[C@H](O)CC1 [ambroxol, trans-4-[(2-amino-3,5-dibromobenzyl)amino]cyclohexanol]
- concentration at which significant increases were observed ([1]; FIGS. 5 and 6): 25 µM
- EC50 ([1]; read-out: concentration giving 50% of maximal autophagy induced by ambroxol (sigmoidal fit), both data sets, FIGS. 5 and 6): ~50 µM
- plasma half-life [2]: 3.72 h
- dose response of autophagy induction ([3]; FIG. 4): clear dose response
- concentration as low as which gave appreciable increases in autophagy ([3]; LC3 puncta, t test v. control p=0.0008, FIG. 4): 6.25 µM
- concentration as low as which had a positive effect on autophagy ([4]; LC3 puncta, pp242 induction = 100%, t test v. control p=0.025, FIG. 3): 6.25 µM
- dose response of autophagy induction ([4]; ambroxol 0 to 200 uM, FIG. 3): higher ambroxol concentrations result in higher induction of autophagy
